Consider two compounds from patent US20230295260A1, “GLP RECEPTOR AGONISTS” (HEPTARES THERAPEUTICS LIMITED, priority 2020, published 2023).

One test deals with T1, human GLP2 receptor (Homo sapiens, UniProt O95838).
T1 sequence (O95838 1-553): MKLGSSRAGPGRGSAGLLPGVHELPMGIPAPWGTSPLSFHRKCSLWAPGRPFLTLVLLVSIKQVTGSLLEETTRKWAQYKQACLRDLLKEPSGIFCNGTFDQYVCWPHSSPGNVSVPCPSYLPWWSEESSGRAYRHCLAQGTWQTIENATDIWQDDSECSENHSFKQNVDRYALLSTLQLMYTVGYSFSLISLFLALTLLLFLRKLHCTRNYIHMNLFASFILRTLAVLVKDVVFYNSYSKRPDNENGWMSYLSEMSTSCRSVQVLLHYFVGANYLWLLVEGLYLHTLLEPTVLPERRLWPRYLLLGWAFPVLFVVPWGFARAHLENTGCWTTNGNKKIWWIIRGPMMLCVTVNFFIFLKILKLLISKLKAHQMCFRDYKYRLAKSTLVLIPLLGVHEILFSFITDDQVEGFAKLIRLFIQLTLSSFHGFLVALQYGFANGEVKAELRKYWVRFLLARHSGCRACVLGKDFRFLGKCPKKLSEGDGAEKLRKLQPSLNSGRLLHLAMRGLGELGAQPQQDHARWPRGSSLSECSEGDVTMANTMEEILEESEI
As to the kind of experiment: cAMP accumulation assay (HTRF), functional agonism of human GLP2 receptor in HEK cells.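 For all read-outs here: HEK cells transduced via BacMam to express human GLP2 receptor, agonist-stimulated cAMP measured by HTRF after 45 min at 37 °C in HBSS with 0.5 mM IBMX.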 The settings on record: for Emax: HEK293, read-out: Human GLP-2R agonist cAMP Emax.

The target in a further test is T2, mouse GLP1 receptor (Mus musculus, UniProt O35659).
T2 construct: expressed in transfected cells; host or cells: HEK cells, transient transfection with GeneJuice
T2 sequence (O35659 22-463): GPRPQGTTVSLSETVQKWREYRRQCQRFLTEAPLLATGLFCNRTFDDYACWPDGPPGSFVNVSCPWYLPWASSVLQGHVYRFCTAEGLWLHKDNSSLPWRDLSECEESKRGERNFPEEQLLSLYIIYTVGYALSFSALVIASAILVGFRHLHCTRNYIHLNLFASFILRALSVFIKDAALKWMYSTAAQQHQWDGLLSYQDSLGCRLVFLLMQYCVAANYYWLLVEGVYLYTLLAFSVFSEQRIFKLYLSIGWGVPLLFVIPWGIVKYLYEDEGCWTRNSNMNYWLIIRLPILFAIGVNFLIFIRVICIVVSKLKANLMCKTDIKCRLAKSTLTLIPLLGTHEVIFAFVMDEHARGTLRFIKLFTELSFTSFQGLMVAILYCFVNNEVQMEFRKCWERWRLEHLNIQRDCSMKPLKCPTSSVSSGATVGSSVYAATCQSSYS
As to the kind of experiment: cAMP accumulation assay (HTRF), functional agonism of mouse GLP1 receptor in HEK cells. The test is classed as cell-based. The note with it: HEK cells transiently transfected, 45 min 37° C.; for Emax: HEK293, read-out: Mouse GLP-1 R agonist cAMP Emax.

The next test addresses T3, human GLP1 receptor (Homo sapiens, UniProt P43220).
T3 construct: expressed in transfected cells; host or cells: HEK cells, BacMam virus transduction
As to the kind of experiment: cAMP accumulation assay (HTRF), functional agonism of human GLP1 receptor in HEK cells. The settings on record: HEK cells, human GLP1 receptor BacMam, 45 min 37° C.; for Emax: HEK293, read-out: Human GLP-1R agonist cAMP Emax. It counts as cell-based.

Another test deals with T4, mouse GLP2 receptor (Mus musculus, UniProt Q5IXF8).
T4 construct: expressed in transfected cells; host or cells: HEK cells, transient transfection with GeneJuice
T4 sequence (Q5IXF8 1-512): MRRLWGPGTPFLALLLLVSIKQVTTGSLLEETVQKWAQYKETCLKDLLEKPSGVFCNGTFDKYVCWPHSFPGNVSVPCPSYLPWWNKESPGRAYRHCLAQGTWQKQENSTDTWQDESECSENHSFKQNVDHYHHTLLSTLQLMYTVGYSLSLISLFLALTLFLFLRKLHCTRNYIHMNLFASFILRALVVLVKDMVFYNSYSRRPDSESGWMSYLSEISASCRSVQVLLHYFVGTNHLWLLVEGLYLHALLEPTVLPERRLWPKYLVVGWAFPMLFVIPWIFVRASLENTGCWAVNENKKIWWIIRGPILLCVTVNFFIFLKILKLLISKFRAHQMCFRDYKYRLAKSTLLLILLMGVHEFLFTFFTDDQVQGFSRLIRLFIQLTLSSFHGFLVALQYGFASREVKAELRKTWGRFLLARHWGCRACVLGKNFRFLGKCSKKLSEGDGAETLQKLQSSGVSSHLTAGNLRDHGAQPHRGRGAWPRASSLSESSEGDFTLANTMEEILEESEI
As to the kind of experiment: cAMP accumulation assay (HTRF), functional agonism of mouse GLP2 receptor in HEK cells. It counts as cell-based. The settings on record: HEK cells transiently transfected, 45 min 37° C.; for Emax: HEK293, read-out: Mouse GLP-2R agonist cAMP Emax.

Non-standard residues stand in square brackets, D forms with d. Residues, ends and D or L forms follow the SMILES beside them. ξ: configuration not given here. *: point of attachment. Malonyl(2,2-Me2,histaminyl) = CC(C)(C(=O)NCCc1cnc[nH]1)C(=O)*; Ala(1H-tetrazol-5-yl) = N[C@@H](Cc1nnn[nH]1)C(=O)O; ξαMeD = CC(N)(CC(=O)O)C(=O)O; Nle = CCCC[C@H](N)C(=O)O; Aib = CC(C)(N)C(=O)O; Alloc = C=CCOC(=O)*

T3 sequence (P43220 24-463): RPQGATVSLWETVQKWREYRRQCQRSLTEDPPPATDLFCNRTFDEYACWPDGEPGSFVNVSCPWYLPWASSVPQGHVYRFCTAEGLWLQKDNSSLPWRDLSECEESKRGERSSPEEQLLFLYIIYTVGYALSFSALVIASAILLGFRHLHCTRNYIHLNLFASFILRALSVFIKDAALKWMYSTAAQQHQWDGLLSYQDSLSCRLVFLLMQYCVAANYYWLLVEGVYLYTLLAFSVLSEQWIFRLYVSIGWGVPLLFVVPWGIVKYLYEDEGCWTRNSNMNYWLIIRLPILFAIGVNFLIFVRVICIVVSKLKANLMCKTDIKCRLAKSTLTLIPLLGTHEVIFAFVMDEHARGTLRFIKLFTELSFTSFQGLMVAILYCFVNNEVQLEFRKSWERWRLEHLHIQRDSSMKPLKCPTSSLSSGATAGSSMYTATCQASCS

Turning to `C=CCOC(=O)NCCCC[C@H](NC(=O)[C@H](CC(C)C)NC(=O)[C@H](CC(=O)O)NC(=O)[C@H](CC(C)C)NC(=O)C(C)(C)NC(=O)[C@@H](NC(=O)[C@@H](Cc1ccccc1)NC(=O)[C@H](CCCC)NC(=O)[C@H](CCC(=O)O)NC(=O)[C@H](CC(=O)O)NC(=O)[C@H](CO)NC(=O)[C@H](Cc1ccccc1)NC(=O)[C@H](CO)NC(=O)CNC(=O)[C@H](Cc1nn[nH]n1)NC(=O)C(C)(C)C(=O)NCCc1c[nH]cn1)[C@@H](C)O)C(=O)N[C@@H](C)C(=O)N[C@@H](C)C(=O)N[C@@H](CCCCN)C(=O)N[C@@H](CC(=O)O)C(=O)N[C@@H](Cc1ccccc1)C(=O)N[C@H](C(=O)N[C@@H](CC(N)=O)C(=O)N[C@@H](Cc1c[nH]c2ccccc12)C(=O)N[C@@H](CC(C)C)C(=O)N[C@H](C(=O)N[C@@H](CCC(N)=O)C(=O)N[C@H](C(=O)N[C@@H](CCCCN)C(=O)N[C@H](C(=O)N[C@H](C(=O)N[C@@H](CC(=O)O)C(N)=O)[C@@H](C)O)[C@@H](C)CC)[C@@H](C)O)[C@@H](C)CC)[C@@H](C)CC` [Example 17] ({Malonyl(2,2-Me2,histaminyl)}-[Ala(1H-tetrazol-5-yl)]GSFSDE[Nle][dF]T[Aib]LDLK(Alloc)AAKDFINWLIQTKITD-NH2), the EC50 on human GLP2 receptor is 0.00501 nM; at mouse GLP1 receptor (read-out: Mouse GLP-1 R agonist cAMP pEC50 (converted)) it was 0.631 nM; on human GLP1 receptor (read-out: Human GLP-1R agonist cAMP pEC50 (converted)), 0.794 nM; on mouse GLP2 receptor (read-out: Mouse GLP-2R agonist cAMP pEC50 (converted)), 0.794 nM. The maximum response (Emax) at human GLP2 receptor stood at 101%; on mouse GLP1 receptor it was 94.9%; at human GLP1 receptor, 93.7%; on mouse GLP2 receptor, 100%.
Take `C=CCOC(=O)NCCCC[C@H](NC(=O)[C@H](CC(C)C)NC(=O)[C@H](CC(=O)O)NC(=O)[C@H](CC(C)C)NC(=O)[C@@H](NC(=O)[C@@H](NC(=O)[C@@H](Cc1ccccc1)NC(=O)[C@H](CCCC)NC(=O)[C@H](CCC(=O)O)NC(=O)[C@H](CC(=O)O)NC(=O)[C@H](CO)NC(=O)[C@H](Cc1ccccc1)NC(=O)[C@H](CO)NC(=O)CNC(=O)[C@H](Cc1nn[nH]n1)NC(=O)C(C)(C)C(=O)NCCc1c[nH]cn1)[C@@H](C)O)[C@@H](C)CC)C(=O)N[C@@H](C)C(=O)N[C@@H](C)C(=O)N[C@@H](CCCCN)C(=O)N[C@@H](CC(=O)O)C(=O)N[C@@H](Cc1ccccc1)C(=O)N[C@H](C(=O)N[C@@H](CC(N)=O)C(=O)N[C@@H](Cc1c[nH]c2ccccc12)C(=O)N[C@@H](CC(C)C)C(=O)N[C@H](C(=O)N[C@@H](CCC(N)=O)C(=O)N[C@H](C(=O)N[C@@H](CCCCN)C(=O)N[C@H](C(=O)N[C@H](C(=O)NC(C)(CC(=O)O)C(N)=O)[C@@H](C)O)[C@@H](C)CC)[C@@H](C)O)[C@@H](C)CC)[C@@H](C)CC` (stereo partly drawn) [Example 20] ({Malonyl(2,2-Me2,histaminyl)}-[Ala(1H-tetrazol-5-yl)]GSFSDE[Nle][dF]TILDLK(Alloc)AAKDFINWLIQTKIT[ξαMeD]-NH2; C-terminus assumed): the Emax on human GLP2 receptor turned out to be 103%; at mouse GLP1 receptor, 92.2%; on human GLP1 receptor, 94%; on mouse GLP2 receptor, 100%.
